According to ChEMBL document CHEMBL1201862, “PubChem BioAssay data set” (2004):
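Where inhibition never reached the appropriate level, the endpoint shown equals the highest concentration tested. Otherwise, values were interpolated linearly from a five-concentration, 48-hour dose response in 96-well plates. GI50 marks 50% less growth.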 Activity calls are given as the source filed them. Cut-off read from the data, not from the text of the source: active = GI50 up to about 1.1 µM and inactive = higher.

Key:
Test in all cases: DTP human tumour cell line panel, 48 h
HCT-15 = tested on: HCT-15
HOP-92 = tested on: HOP-92
COLO 205 = tested on: COLO 205
CCRF-CEM = tested on: CCRF-CEM
DU-145 = tested on: DU-145
SR = tested on: SR
TK-10 = tested on: TK-10
CAKI-1 = tested on: CAKI-1
OVCAR-3 = tested on: OVCAR-3
SF-295 = tested on: SF-295
SW-620 = tested on: SW-620
EKVX = tested on: EKVX
MCF7 = tested on: MCF7
T47D = tested on: T47D
NCI-H522 = tested on: NCI-H522
HOP-62 = tested on: HOP-62
SK-MEL-28 = tested on: SK-MEL-28
UACC-62 = tested on: UACC-62
LOX IMVI = tested on: LOX IMVI
SN12C = tested on: SN12C

Row | Structure (SMILES) | GI50 (HCT-15) [µM] | GI50 (HOP-92) | GI50 (COLO 205) | GI50 (CCRF-CEM) | GI50 (DU-145) | GI50 (SR) | GI50 (TK-10) | GI50 (CAKI-1) | GI50 (OVCAR-3) | GI50 (SF-295) | GI50 (SW-620) | GI50 (EKVX) | GI50 (MCF7) | GI50 (T47D) | GI50 (NCI-H522) | GI50 (HOP-62) | GI50 (SK-MEL-28) | GI50 (UACC-62) | GI50 (LOX IMVI) | GI50 (SN12C)
1 | CCSc1nc(=S)n(-c2ccccc2)c(C)c1C(C)=O | > 100 | > 100 µM (inactive) | > 100 µM (inactive) | > 100 µM (inactive) | > 100 µM (inactive) | > 100 µM (inactive) | > 100 µM (inactive) | > 100 µM (inactive) | > 100 µM (inactive) | > 100 µM (inactive) | > 100 µM (inactive) | > 100 µM (inactive) | > 100 µM (inactive) | > 100 µM (inactive) | > 100 µM (inactive) | > 100 µM (inactive) | > 100 µM (inactive) | > 100 µM (inactive) | > 100 µM (inactive) | > 100 µM (inactive)
2 | O=C(OCc1ccccc1)c1ccc(NCc2cc(O)ccc2O)cc1 | 1.03 | 0.867 µM (active) | 1.47 µM (inactive) | 0.308 µM (active) | 3.15 µM (inactive) | 0.247 µM (active) | 1.95 µM (inactive) | 0.575 µM (active) | 1 µM (active) | 6.12 µM (inactive) | 1.67 µM (inactive) | 1.75 µM (inactive) | 2.01 µM (inactive) | 1.51 µM (inactive) | 0.35 µM (active) | 7.43 µM (inactive) | 1.63 µM (inactive) | 1.56 µM (inactive) | 1.14 µM (inactive) | 1.38 µM (inactive)
3 | Nc1nc(-c2cc(-c3cccc4ccccc34)nc(N)n2)cc(-c2cccc3ccccc23)n1 | > 100 | > 100 µM (inactive) | > 100 µM (inactive) | > 100 µM (inactive) | > 100 µM (inactive) | > 100 µM (inactive) | > 100 µM (inactive) | > 100 µM (inactive) | > 100 µM (inactive) | 65.8 µM (inactive) | > 100 µM (inactive) | > 100 µM (inactive) | > 100 µM (inactive) | > 100 µM (inactive) | > 100 µM (inactive) | > 100 µM (inactive) | > 100 µM (inactive) | > 100 µM (inactive) | > 100 µM (inactive) | > 100 µM (inactive)
4 | CN1CC2=C(N=C(S)NC2c2ccccc2Cl)/C(=C/c2ccccc2Cl)C1 (stereo not given) | 64.1 | 3.81 µM (inactive) | 21.8 µM (inactive) | 28.8 µM (inactive) | 76.2 µM (inactive) | 17.7 µM (inactive) | 71.3 µM (inactive) | > 100 µM (inactive) | 21.5 µM (inactive) | 53.5 µM (inactive) | > 100 µM (inactive) | 43.2 µM (inactive) | > 100 µM (inactive) | 58.3 µM (inactive) | 29.6 µM (inactive) | > 100 µM (inactive) | > 100 µM (inactive) | 14.7 µM (inactive) | 51.1 µM (inactive) | 46.2 µM (inactive)
5 | O=C(O)CN1CCN2CCOCCN(CC1)CCN(CC(=O)O)CC2 | > 100 | > 100 µM (inactive) | > 100 µM (inactive) | > 100 µM (inactive) | > 100 µM (inactive) | > 100 µM (inactive) | > 100 µM (inactive) | > 100 µM (inactive) | > 100 µM (inactive) | > 100 µM (inactive) | > 100 µM (inactive) | > 100 µM (inactive) | > 100 µM (inactive) | > 100 µM (inactive) | > 100 µM (inactive) | > 100 µM (inactive) | > 100 µM (inactive) | > 100 µM (inactive) | > 100 µM (inactive) | > 100 µM (inactive)
6 | CC1OC(OC2C(Oc3cc(O)c4c(c3)O[C@H](c3ccc(O)cc3)CC4=O)OC(CO)C(O)C2O)C(O)C(O)C1O (stereo not given in full) | > 100 | > 100 µM (inactive) | > 100 µM (inactive) | > 100 µM (inactive) | > 100 µM (inactive) | > 100 µM (inactive) | > 100 µM (inactive) | > 100 µM (inactive) | > 100 µM (inactive) | > 100 µM (inactive) | > 100 µM (inactive) | > 100 µM (inactive) | > 100 µM (inactive) | > 100 µM (inactive) | > 100 µM (inactive) | > 100 µM (inactive) | > 100 µM (inactive) | > 100 µM (inactive) | > 100 µM (inactive) | > 100 µM (inactive)
7 | CC1(Br)Cc2ccccc2C1=O (stereo not given) | 7.78 | 6.49 µM (inactive) | 4.35 µM (inactive) | 1.75 µM (inactive) | 13.7 µM (inactive) | 2.45 µM (inactive) | 16.1 µM (inactive) | 8.71 µM (inactive) | 8.99 µM (inactive) | 18.7 µM (inactive) | 4.75 µM (inactive) | 3.27 µM (inactive) | 3.73 µM (inactive) | 9.31 µM (inactive) | 4.14 µM (inactive) | 15.3 µM (inactive) | 2.29 µM (inactive) | 1.29 µM (inactive) | 3.09 µM (inactive) | 7.59 µM (inactive)
